Test results published in EP0430194A2, “Aryl-alkyl-azoles substituted with many times unsaturated groups, process for their preparation and their use” (HOECHST AKTIENGESELLSCHAFT, priority 1989, dated 1991).

Columns and labels:
[1] = test system: Trichophyton mentagrophytes; assay: Local in vivo efficacy, dermal treatment of guinea pigs infected with Trichophyton mentagrophytes; settings: Dermal 5 x 0,1 %; for Mykosen (Durchmesser in mm) Mittelwert (Standardabweich.): Meerschweinchen (Pirbright white), from day 3 after infection, n = 6; for Reduktion in %: Meerschweinchen, relative to Bifonazol = 100,0
From the text: Als Beispiel für die hohe lokale in vivo Wirksamkeit der erfindungsgemäßen Verbindungen werden Behandlungsergebnisse an Experimenten mit Trichophyton mentagrophytes infizierten Labortieren angeführt.
Zur Feststellung der lokalen Wirksamkeit wurde jeweils ein 450 - 500 g schweres Meerschweinchen (Stamm Pirbright white) mit 1,5 x 10⁴ Konidien/Tier in die Epidermis verteilt auf 6 Infektionspunkte, infiziert.
Die Behandlung der Tiere erfolgte dermal ab dem 3. Tag nach der Infektion an 5 aufeinander folgenden Tagen durch Aufbringen einer 0,1 %igen Präparatlösung auf 6 Infektionsstellen der Rückenseite.
Neben den mit den erfindungsgemäßen Substanzen behandelten Tieren wurde ein Tier mit der Referenzsubstanz Bifonazol behandelt, ein Tier blieb nach der Infektion unbehandelt.

[2] = test system: freigesetzten Exoenzyme von Candida albicans; assay: In vitro enzyme test: inhibition of released exoenzymes of Candida albicans blastoconidia on egg-yolk agar plate; assay type: cell-based; settings: Stamm 200/175
From the text: Als Beispiel für die Hemmung der pathogenen Phase dimorpher Hefezellen werden Ergebnisse eines in-vitro-Enzymtests angeführt, in welchen die prozentuale Hemmung freigesetzter Exoenzyme, insbesondere freigesetzter Lysophospholipase (Phospholipase B), als Maß für die Wirksamkeit bestimmt wird.
Zur Feststellung der Enzymhemmung wurde eine Suspension von Candida albicans Blastokonidien (Stamm 200/175), wobei die Keimdichte photometrisch auf eine Extinktion von 0,5 (500 nm) eingestellt war, mit Präparatelösung bzw. zur Kontrolle mit Lösungsmittellösung vermischt und zwar • a) 100 µl Präparatelösung (Suspension) + 900 µl Keimsuspension • b) 100 µl Lösungsmittel + 900 µl Keimsuspension
Jeweils 5 µl der 30 min bei 21°C inkubierten Blastokonidiensuspension wurden auf eine Agarplatte (Sabourand Agar mit Zusatz von 8 % Eigelb, 1 M NaCl, 5 mM CaCl₂) aufgetropft.
Die so beimpfte Platte wurde 3 Tage bei 37°C bebrütet.
Die Auswertung erfolgte derart, daß • 1. der Durchmesser (mm) der Candida albicans-Kolonie (behandelt und unbehandelt) sowie • 2. der Gesamtdurchmesser von Kolonie und Trübungshof, welcher durch Exoenzyme verursacht wurde (behandelt und unbehandelt) bestimmt wurde.
Aus der Bestimmung des Quotienten von Präparate- und Kontrollgruppe ergab sich ein Wert, der als Maß für die Enzymaktivität anzusehen war.

[3] = test system: Phospholipase aus Leberzellen; settings: literature, Biochem. Pharmacol. 34, 521-24, 1985; cited from earlier work
[4] = Präparat-Konzentration 10 µg/ml
[5] = Präparat-Konzentration 50 µg/ml
[6] = Präparat-Konzentration 100 µg/ml

CC(C)=CCC/C(C)=C\COC(Cn1ccnc1)c1ccc(Cl)cc1Cl (racemic) [Beispiel 2, (R,S)-1-(2,4-Dichlorphenyl)-1-(cis-3,7-dimethyl-2,6-octadien-1-oxy)-2-(imidazol-1-yl)-ethan]
Mykosen (Durchmesser in mm) Mittelwert (Standardabweich.) [1]: 3,3 (0,5) mm | Reduktion in % [1]: 139,3% | Prozentuale Hemmung der freigesetzten Exoenzyme von Candida albicans in vitro [2, 4]: 41,2% | Prozentuale Hemmung der freigesetzten Exoenzyme von Candida albicans in vitro [2, 5]: 100% | Prozentuale Hemmung der freigesetzten Exoenzyme von Candida albicans in vitro [2, 6]: 100%

CC(C)=CCC/C(C)=C\COC(Cn1cncn1)c1ccc(Cl)cc1Cl (racemic) [Beispiel 5]
Mykosen (Durchmesser in mm) Mittelwert (Standardabweich.) [1]: 2,6 (1,5) mm | Reduktion in % [1]: 176,9%

CC(C)=CCC/C(C)=C\COC(CCn1ccnc1)c1cccs1 (racemic) [Beispiel 40]
Mykosen (Durchmesser in mm) Mittelwert (Standardabweich.) [1]: 2,8 (1,7) mm | Reduktion in % [1]: 164,2%

CC(C)=CCC/C(C)=C\COC(Cn1cncn1)c1ccc(Cl)s1 (racemic) [Beispiel 42]
Prozentuale Hemmung der freigesetzten Exoenzyme von Candida albicans in vitro [2, 4]: 50,0% | Prozentuale Hemmung der freigesetzten Exoenzyme von Candida albicans in vitro [2, 5]: 100% | Prozentuale Hemmung der freigesetzten Exoenzyme von Candida albicans in vitro [2, 6]: 100%

CC(C)=CCC/C(C)=C\COC(Cn1ccnc1)c1ccccn1 (racemic) [Beispiel 46]
Mykosen (Durchmesser in mm) Mittelwert (Standardabweich.) [1]: 2,8 (1,6) mm | Reduktion in % [1]: 164,2%

CC(C)=CCC/C(C)=C\COC(Cn1ccnc1)c1ccco1 (racemic) [Beispiel 47]
Mykosen (Durchmesser in mm) Mittelwert (Standardabweich.) [1]: 3,6 (0,8) mm | Reduktion in % [1]: 127,7%

c1ccc(-c2ccc(C(c3ccccc3)n3ccnc3)cc2)cc1 (stereo not shown) [Bifonazol, reference compound]
Mykosen (Durchmesser in mm) Mittelwert (Standardabweich.) [1]: 4,6 (1,5) mm | Reduktion in % [1]: 100,0%

CC(C)NCC(O)COc1cccc2ccccc12 (stereo not shown) [Propranolol, reference compound]
Prozentuale Hemmung der freigesetzten Exoenzyme von Candida albicans in vitro [2, 4]: 0% | Prozentuale Hemmung der freigesetzten Exoenzyme von Candida albicans in vitro [2, 5]: 10% | Prozentuale Hemmung der freigesetzten Exoenzyme von Candida albicans in vitro [2, 6]: 30% | Hemmwirkung gegenüber Phospholipase aus Leberzellen [3]: Hemmwirkung zeigte
